Results reported in patent publication US20250325534A1, “MICROBIOCIDAL TETRAHYDROISOQUINOLINE DERIVATIVES” (SYNGENTA CROP PROTECTION AG, priority 2021, published 2025).

Assays:
[1] = tested on: Sclerotinia sclerotiorum; test: Sclerotinia sclerotiorum / liquid culture (cottony rot); assay type: cell-based; conditions: 72 h, photometrically 3-4 days after application, read-out: control of Sclerotinia sclerotiorum
Experimental: Example B18: Sclerotinia sclerotiorum/Liquid Culture (Cottony Rot) Mycelia fragments of a newly grown liquid culture of the fungus are directly mixed into a nutrient broth (potato dextrose broth). After placing a DMSO solution of test compound into a microtiter plate (96-well format) the nutrient broth containing the fungal material is added. The test plates are incubated at 24° C. and the inhibition of growth is determined photometrically 3-4 days after application.

[2] = tested on: Pyrenophora teres; test: Pyrenophora teres / barley / leaf disc preventative (net blotch); assay type: in vivo; conditions: foliar, inoculated 2 days after application
Experimental: Example B16: Pyrenophora teres/Barley/Leaf Disc Preventative (Net Blotch) Barley leaf segments cv. Hasso are placed on agar in a multiwell plate (24-well format) and sprayed with the formulated test compound diluted in water. The leaf segments are inoculated with a spore suspension of the fungus 2 days after application. The inoculated leaf segments are incubated at 20° C. and 65% relative humidity under a light regime of 12 h light/12 h darkness in a climate cabinet and the activity of a compound is assessed as disease control compared to untreated when an appropriate level of disease damage appears in untreated check leaf segments (5-7 days after application).

[3] = tested on: Puccinia recondita f. sp. tritici; test: Puccinia recondita f. sp. tritici / wheat / leaf disc preventative (brown rust); assay type: in vivo; conditions: foliar, inoculated 1 day after application
Experimental: Example B14: Puccinia recondita f. Sp. Tritici/Wheat/Leaf Disc Preventative (Brown Rust) Wheat leaf segments cv. Kanzler are placed on agar in multiwell plates (24-well format) and sprayed with the formulated test compound diluted in water. The leaf disks are inoculated with a spore suspension of the fungus 1 day after application. The inoculated leaf segments are incubated at 19° C. and 75% relative humidity under a light regime of 12 h light/12 h darkness in a climate cabinet and the activity of a compound is assessed as percent disease control compared to untreated when an appropriate level of disease damage appears in untreated check leaf segments (7-9 days after application).

[4] = tested on: Mycosphaerella graminicola; test: Mycosphaerella graminicola (Septoria tritici) / liquid culture (Septoria blotch); assay type: cell-based; conditions: Zymoseptoria tritici, 96 h, photometrically 4-5 days after application, read-out: control of Mycosphaerella graminicola
Outline: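 Growth inhibition measured by photometry 4-5 days post application, at 24° C incubation. Test compound supplied as DMSO solution; fungal conidia from cryostorage suspended directly in potato dextrose broth as inoculum.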

[5] = tested on: Monographella nivalis; test: Monographella nivalis (Microdochium nivale) / liquid culture (foot rot cereals); assay type: cell-based; conditions: 96 h, photometrically 4-5 days after application, read-out: control of Monographella nivalis
Outline: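 Test compound, applied as a DMSO solution, was challenged with fungal spores suspended in potato dextrose broth; after 4-5 days at 24° C, photometric readout gave inhibition of growth.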

[6] = tested on: Mycosphaerella arachidis; test: Mycosphaerella arachidis (Cercospora arachidicola) / liquid culture (early leaf spot); assay type: cell-based; conditions: 96 h, photometrically 4-5 days after application, read-out: control of Mycosphaerella arachidis
Outline: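 Photometric growth inhibition, read 4-5 days post-application at 24 °C, of Cercospora arachidicola spores suspended in potato dextrose broth and exposed to test compound delivered from DMSO solution.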

[7] = tested on: Glomerella lagenarium; test: Glomerella lagenarium (Colletotrichum lagenarium) / liquid culture (anthracnose); assay type: cell-based; conditions: Colletotrichum orbiculare, 72 h, photometrically 3-4 days after application, read-out: control of Glomerella lagenarium
Outline: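 Conidia in potato dextrose broth added to test compound delivered as DMSO solution in microtiter plates; incubation at 24° C. Growth inhibition read photometrically 3-4 days after application.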

[8] = tested on: Phaeosphaeria nodorum; test: Phaeosphaeria nodorum (Septoria nodorum) / wheat / leaf disc preventative (glume blotch); assay type: in vivo; conditions: Parastagonospora nodorum, foliar, inoculated 2 days after application
Outline: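 Wheat leaf discs (cv. Kanzler) on agar were sprayed with formulated compound diluted in water, then inoculated with spores 2 days later. Incubation was at 20 °C and 75% relative humidity under 12 h light/12 h dark. Percent disease control versus untreated was scored 5–7 days after application.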

[9] = tested on: Alternaria solani; test: Alternaria solani / tomato / leaf disc (early blight); assay type: in vivo; conditions: foliar, inoculated 2 days after application, vs untreated control
[10] = tested on: Fusarium culmorum; test: microbe, parasite or virus in culture; assay type: cell-based; conditions: 72 h, read-out: control of Fusarium culmorum
[11] = tested on: Botryotinia fuckeliana; test: Botryotinia fuckeliana (Botrytis cinerea) / liquid culture (gray mould); assay type: cell-based; conditions: 72 h, growth inhibition photometrically 3-4 days after application, read-out: control of Botryotinia fuckeliana
Outline: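 Botrytis cinerea conidia in Vogels nutrient broth added to test compound delivered in DMSO. Incubated at 24 °C; growth inhibition measured photometrically 3–4 days after application.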

[12] = tested on: Blumeria graminis f. sp. tritici; test: Blumeria graminis f. sp. tritici / wheat / leaf disc preventative (powdery mildew); assay type: in vivo; conditions: foliar, inoculated 1 day after application
Experimental: Example B7: Blumeria graminis f. Sp. Tritici (Erysiphe graminis f. Sp. Tritici)/Wheat/Leaf Disc Preventative (Powdery Mildew on Wheat) Wheat leaf segments cv. Kanzler are placed on agar in a multiwell plate (24-well format) and sprayed with the formulated test compound diluted in water. The leaf disks are inoculated by shaking powdery mildew infected plants above the test plates 1 day after application. The inoculated leaf disks are incubated at 20° C. and 60% relative humidity under a light regime of 24 h darkness followed by 12 h light/12 h darkness in a climate chamber and the activity of a compound is assessed as percent disease control compared to untreated when an appropriate level of disease damage appears on untreated check leaf segments (6-8 days after application).

Cn1cc(C2CN(C(=O)c3cc(-c4ccc(F)cc4F)on3)Cc3ccccc32)cn1 (single isomer, unassigned) [Compound P-143, [5-(2,4-difluorophenyl)isoxazol-3-yl]-[4-(1-methylpyrazol-4-yl)-3,4-dihydro-1H-isoquinolin-2-yl]methanone]
≥ 80%: inhibition of growth at 20 ppm [1] | pest or weed control at 200 ppm [2]

C#Cc1ccc(-c2cc(C(=O)N3Cc4ccccc4C(c4cnn(C)c4)C3)no2)c(F)c1 (stereo not drawn) [Compound P-31, [5-(4-ethynyl-2-fluoro-phenyl)isoxazol-3-yl]-[4-(1-methylpyrazol-4-yl)-3,4-dihydro-1H-isoquinolin-2-yl]methanone]
≥ 80%: pest or weed control at 200 ppm [3]

CC1c2ccc(OCC(F)(F)F)cc2C(C)(c2cnn(C)c2)CN1C(=O)c1cc(-c2ccc(F)cc2F)on1 (stereo not drawn) [Compound P-34, [5-(2,4-difluorophenyl)isoxazol-3-yl]-[1,4-dimethyl-4-(1-methylpyrazol-4-yl)-6-(2,2,2-trifluoroethoxy)-1,3-dihydroisoquinolin-2-yl]methanone]
≥ 80%: pest or weed control at 200 ppm [3] | inhibition of growth at 20 ppm [4] | inhibition of growth at 20 ppm [5] | inhibition of growth at 20 ppm [6]

Cc1c(C2CN(C(=O)c3nnc(-c4ccccc4F)s3)Cc3ccccc32)cnn1C (stereo not drawn) [Compound P-64, [4-(1,5-dimethylpyrazol-4-yl)-3,4-dihydro-1H-isoquinolin-2-yl]-[5-(2-fluorophenyl)-1,3,4-thiadiazol-2-yl]methanone]
≥ 80%: inhibition of growth at 20 ppm [7] | pest or weed control at 200 ppm [8] | pest or weed control at 200 ppm [9] | inhibition of growth at 20 ppm [10] | inhibition of growth at 20 ppm [11] | inhibition of growth at 20 ppm [4] | inhibition of growth at 20 ppm [5] | inhibition of growth at 20 ppm [6] | pest or weed control at 200 ppm [2]

Cc1c(C2c3ccccc3CN(C(=O)c3cc(-c4ccc(F)cc4F)on3)C2(C)C)cnn1C (stereo not drawn) [Compound P-100, [5-(2,4-difluorophenyl)isoxazol-3-yl]-[4-(1,5-dimethylpyrazol-4-yl)-3,3-dimethyl-1,4-dihydroisoquinolin-2-yl]methanone]
≥ 80%: inhibition of growth at 20 ppm [7] | pest or weed control at 200 ppm [8] | pest or weed control at 200 ppm [9] | inhibition of growth at 20 ppm [1] | inhibition of growth at 20 ppm [11] | inhibition of growth at 20 ppm [4] | inhibition of growth at 20 ppm [5] | inhibition of growth at 20 ppm [6] | pest or weed control at 200 ppm [2]

Cn1cc(C2CN(C(=O)c3cc(-c4ccccc4)on3)Cc3ccc(C(F)(F)F)cc32)cn1 (stereo not drawn) [Compound P-104, [4-(1-methylpyrazol-4-yl)-6-(trifluoromethyl)-3,4-dihydro-1H-isoquinolin-2-yl]-(5-phenylisoxazol-3-yl)methanone]
≥ 80%: inhibition of growth at 20 ppm [7] | pest or weed control at 200 ppm [8] | pest or weed control at 200 ppm [12] | pest or weed control at 200 ppm [9] | pest or weed control at 200 ppm [3] | inhibition of growth at 20 ppm [4] | inhibition of growth at 20 ppm [5] | inhibition of growth at 20 ppm [6] | pest or weed control at 200 ppm [2]

Cc1c(C2CN(C(=O)c3cc(-c4ccc(F)cc4)no3)Cc3ccccc32)cnn1C (stereo not drawn) [Compound P-109, [4-(1,5-dimethylpyrazol-4-yl)-3,4-dihydro-1H-isoquinolin-2-yl]-[3-(4-fluorophenyl)isoxazol-5-yl]methanone]
≥ 80%: inhibition of growth at 20 ppm [7] | pest or weed control at 200 ppm [8] | pest or weed control at 200 ppm [12] | pest or weed control at 200 ppm [9] | inhibition of growth at 20 ppm [1] | pest or weed control at 200 ppm [3] | inhibition of growth at 20 ppm [11] | inhibition of growth at 20 ppm [4] | inhibition of growth at 20 ppm [5] | inhibition of growth at 20 ppm [6] | pest or weed control at 200 ppm [2]

Cc1ccc2c(c1)C(c1cnn(C)c1)CN(C(=O)c1cc(-c3ccc(F)cc3F)on1)C2 (stereo not drawn) [Compound P-133, [5-(2,4-difluorophenyl)isoxazol-3-yl]-[6-methyl-4-(1-methylpyrazol-4-yl)-3,4-dihydro-1H-isoquinolin-2-yl]methanone]
≥ 80%: pest or weed control at 200 ppm [9] | pest or weed control at 200 ppm [3] | inhibition of growth at 20 ppm [4] | inhibition of growth at 20 ppm [5] | inhibition of growth at 20 ppm [6]

Cn1cc(C2CN(C(=O)c3cc(-c4ccc(F)cc4F)no3)Cc3ccccc32)cn1 (stereo not drawn) [Compound P-151, [3-(2,4-difluorophenyl)isoxazol-5-yl]-[4-(1-methylpyrazol-4-yl)-3,4-dihydro-1H-isoquinolin-2-yl]methanone]
≥ 80%: inhibition of growth at 20 ppm [7] | pest or weed control at 200 ppm [8] | pest or weed control at 200 ppm [12] | pest or weed control at 200 ppm [9] | inhibition of growth at 20 ppm [11] | inhibition of growth at 20 ppm [4] | inhibition of growth at 20 ppm [5] | inhibition of growth at 20 ppm [6] | pest or weed control at 200 ppm [2]

CCc1ccc(-c2cc(C(=O)N3Cc4ccccc4C(c4cnn(C)c4)C3)no2)cc1 (stereo not drawn) [Compound P-171, [5-(4-ethylphenyl)isoxazol-3-yl]-[4-(1-methylpyrazol-4-yl)-3,4-dihydro-1H-isoquinolin-2-yl]methanone]
≥ 80%: pest or weed control at 200 ppm [3]

Cn1cc(C2CN(C(=O)c3cc(-c4ccc(F)cc4F)on3)Cc3ccccc32)cn1 (stereo not drawn) [Compound P-180, [5-(2,4-difluorophenyl)isoxazol-3-yl]-[4-(1-methylpyrazol-4-yl)-3,4-dihydro-1H-isoquinolin-2-yl]methanone]
≥ 80%: inhibition of growth at 20 ppm [7] | pest or weed control at 200 ppm [8] | pest or weed control at 200 ppm [9] | inhibition of growth at 20 ppm [1] | inhibition of growth at 20 ppm [11] | inhibition of growth at 20 ppm [4] | inhibition of growth at 20 ppm [5] | inhibition of growth at 20 ppm [6] | pest or weed control at 200 ppm [2]

Cc1cc(C(=O)N2Cc3ccccc3C(c3cnn(C)c3)C2)no1 (stereo not drawn) [Compound P-194, (5-methylisoxazol-3-yl)-[4-(1-methylpyrazol-4-yl)-3,4-dihydro-1H-isoquinolin-2-yl]methanone]
≥ 80%: inhibition of growth at 20 ppm [7] | pest or weed control at 200 ppm [3] | inhibition of growth at 20 ppm [4] | inhibition of growth at 20 ppm [5] | inhibition of growth at 20 ppm [6]

Cn1cc(C2CN(C(=O)c3cc(-c4cccs4)on3)Cc3ccccc32)cn1 (stereo not drawn) [Compound P-206, [4-(1-methylpyrazol-4-yl)-3,4-dihydro-1H-isoquinolin-2-yl]-[5-(2-thienyl)isoxazol-3-yl]methanone]
≥ 80%: inhibition of growth at 20 ppm [7] | pest or weed control at 200 ppm [3] | inhibition of growth at 20 ppm [4] | inhibition of growth at 20 ppm [5]
